≈ marks a conversion by molar mass, not a printed value. Where two headings read alike, the source gives them in different places.
Tests used:
[1] = tested on: E. coli GC 2009 (TEM-10); test: MIC microbroth dilution; β-lactamase class A (ESBL); format: cell-based
Description: (§1) The in vitro activities of the antibiotics were determined by the microbroth dilution method as recommended by the National Committee for Clinical Laboratory Standards (NCCLS). (NCCLS. 2000. Methods for Dilution Antimicrobial Susceptibility Tests for Bacteria That Grow Aerobically; Approved Standards: M7-A5, vol. 19. National Committee for Clinical Laboratory Standards, Villanova, Pa.). Mueller-Hinton II broth (MHBII)(BBL Cockeysville, Md.), was used for the testing procedure. […]. The plates were incubated for 18-22 hours at 35° C. in ambient air.

[2] = tested on: K. pneumoniae GC 7645 TEM-30 TEM-1 KPC-2 SHV-12; test: MIC microbroth dilution; β-lactamase class A, A (Cb'ase), A (ESBL), A(IRT); format: cell-based
Description: as §1

[3] = tested on: E. coli GC 2253 (IRT-2); test: MIC microbroth dilution; β-lactamase class A (IRT); format: cell-based; conditions: Escherichia coli, Cefepime alone, control of Compound 1 test
Description: as §1

[4] = tested on: K. pn GC 6639 (SHV-13); test: MIC microbroth dilution; β-lactamase class A (ESBL); format: cell-based, K. pneumoniae; conditions: Cefepime alone
Description: as §1

[5] = tested on: K. pn GC 1516 (TEM-26); test: as above; format: cell-based, K. pneumoniae; conditions: Cefepime alone
Description: as §1

[6] = tested on: K. pn GC 1832 (SHV-4); test: as above; format: cell-based, K. pneumoniae; conditions: Cefepime alone
Description: as §1

[7] = tested on: K. pn GC 1510 (TEM-10); test: as above; format: cell-based, K. pneumoniae; conditions: Klebsiella pneumoniae, Cefepime alone, read-out: MIC
Description: as §1

[8] = tested on: K. pn GC 1830 (SHV-2); test: as above; format: cell-based, K. pneumoniae; conditions: Klebsiella pneumoniae, Cefepime alone, read-out: MIC
Description: as §1

[9] = tested on: P. aeruginosa PT 9025 PTZ-R; test: MIC microbroth dilution; format: cell-based
Description: as §1

[10] = tested on: A. baumannii PT 9444 PTZ-R; test: MIC microbroth dilution; β-lactamase class not determined; format: cell-based
Description: as §1

[11] = tested on: K. pn GC 1507 (TEM-9 + SHV-1); test: MIC microbroth dilution; β-lactamase class A, A (ESBL); format: cell-based, K. pneumoniae; conditions: Cefepime alone
Description: as §1

[12] = tested on: K. pn GC 6657 (TEM-1 + SHV-27); test: as above; format: cell-based, K. pneumoniae; conditions: Cefepime alone
Description: as §1

[13] = tested on: K. pn GC 3057 (CAZ-R; P/T-R); test: as above; format: cell-based, K. pneumoniae; conditions: Cefepime alone
Description: as §1

[14] = tested on: K. pn GC 6494 (TEM-1 + SHV-5); test: as above; format: cell-based, K. pneumoniae; conditions: Klebsiella pneumoniae, Cefepime alone, read-out: MIC
Description: as §1

[15] = tested on: K. pn GC 1554 (TEM-1 + TEM-26 + SHV-1); test: as above; format: cell-based, K. pneumoniae; conditions: Klebsiella pneumoniae, Cefepime alone, read-out: MIC
Description: as §1

[16] = tested on: E. coli GC 2906 (Imi-1); test: MIC microbroth dilution; β-lactamase class A (Cb'ase); format: cell-based; conditions: Escherichia coli, Cefepime alone, control of Compound 1 test
Description: as §1

[17] = tested on: E. coli GC 2847 (TEM-1); test: MIC microbroth dilution; β-lactamase class A; format: cell-based; conditions: Escherichia coli, Cefepime alone, read-out: MIC
Description: as §1

[18] = tested on: E. coli GC 2149 (ACT-1; TEM-1 + pl 5.6); test: MIC microbroth dilution; β-lactamase class A, A (ESBL), C; format: cell-based; conditions: Escherichia coli, Cefepime alone, read-out: MIC
Description: as §1

[19] = tested on: K. pneumoniae GC 2826 Act 1 + 3 additional; test: as above; format: cell-based; conditions: Cefepime alone
Description: as §1

[20] = tested on: K. pneumoniae GC 2825 Act 1 + 3 additional; test: as above; format: cell-based; conditions: Cefepime alone
Description: as §1

[21] = tested on: E. coli GC 6197 (TEM-1 + SHV-7 + CMY-2); test: as above; format: cell-based; conditions: Cefepime alone
Description: as §1

[22] = tested on: E. coli GC 1480 OXA-1; test: MIC microbroth dilution; β-lactamase class D; format: cell-based; conditions: Escherichia coli, GC1480OXA1, E. coli GC 1480, Cefepime alone, read-out: MIC
Description: as §1

[23] = tested on: E. coli GC 1807 OXA-7; test: MIC microbroth dilution; β-lactamase class D; format: cell-based; conditions: Escherichia coli, GC1807OXA7, E. coli GC 1807, Cefepime alone, read-out: MIC
Description: as §1

[24] = tested on: E. coli GAR 5929 TEM, OXA, Act-1, CTX (By PCR only); test: MIC microbroth dilution; β-lactamase class A, C, D; format: cell-based; conditions: Cefepime alone
Description: as §1

[25] = Klebsiella pneumoniae, control of Compound 1 test, read-out: MIC
[26] = Escherichia coli, control of Compound 1 test, read-out: MIC

## CO/N=C(\C(=O)N[C@@H]1C(=O)N2C(C(=O)[O-])=C(C[N+]3(C)CCCC3)CS[C@H]12)c1csc(N)n1 [Cefepime, reference compound]
[1]; E. coli GC 2009, Cefepime alone, control of Compound 2 test
  MIC: >16 µg/mL
[1]; Escherichia coli
  MIC: > 16 µg/mL
[2]; K. pneumoniae GC 7645, Cefepime alone, control of Compound 2 test
  MIC: >16 µg/mL
[2]; Klebsiella pneumoniae
  MIC: > 16 µg/mL
[3]
  MIC: 0.03 µg/mL (≈ 0.0624 µM)
[4]; control of Compound 2 test
  MIC: >16 µg/mL
[4]; [25]
  MIC: > 16 µg/mL
[5]; control of Compound 2 test
  MIC: >16 µg/mL
[5]; [25]
  MIC: > 16 µg/mL
[6]; control of Compound 2 test
  MIC: 2 µg/mL (≈ 4.16 µM)
[6]; [25]
  MIC: 2 µg/mL (≈ 4.16 µM)
[7]; control of Compound 1 test
  MIC: 0.5 µg/mL (≈ 1.04 µM)
[7]; control of Compound 2 test
  MIC: 2 µg/mL (≈ 4.16 µM)
[8]; control of Compound 1 test
  MIC: 1 µg/mL (≈ 2.08 µM)
[8]; control of Compound 2 test
  MIC: 0.5 µg/mL (≈ 1.04 µM)
[9]; P. aeruginosa PT 9025, Cefepime alone, control of Compound 2 test
  MIC: >16 µg/mL
[9]; Pseudomonas aeruginosa, PT9025PTZR
  MIC: > 16 µg/mL
[10]; A. baumannii PT 9444, Cefepime alone, control of Compound 2 test
  MIC: >16 µg/mL
[10]; Acinetobacter baumannii, PT9444PTZR
  MIC: > 16 µg/mL
[11]; control of Compound 2 test
  MIC: 8 µg/mL (≈ 16.6 µM)
[11]; [25]
  MIC: 8 µg/mL (≈ 16.6 µM)
[12]; control of Compound 2 test
  MIC: 0.12 µg/mL (≈ 0.25 µM)
[12]; [25]
  MIC: 0.12 µg/mL (≈ 0.25 µM)
[13]; control of Compound 2 test
  MIC: >16 µg/mL
[13]; [25]
  MIC: > 16 µg/mL
[14]; control of Compound 1 test
  MIC: 4 µg/mL (≈ 8.32 µM)
[14]; control of Compound 2 test
  MIC: 2 µg/mL (≈ 4.16 µM)
[15]; control of Compound 1 test
  MIC: > 16 µg/mL
[15]; control of Compound 2 test
  MIC: 8 µg/mL (≈ 16.6 µM)
[16]
  MIC: 0.5 µg/mL (≈ 1.04 µM)
[17]; control of Compound 1 test
  MIC: 0.12 µg/mL (≈ 0.25 µM)
[17]; control of Compound 2 test
  MIC: 0.06 µg/mL (≈ 0.125 µM)
[18]; control of Compound 1 test
  MIC: 8 µg/mL (≈ 16.6 µM)
[18]; control of Compound 2 test
  MIC: 16 µg/mL (≈ 33.3 µM)
[19]; control of Compound 2 test
  MIC: 8 µg/mL (≈ 16.6 µM)
[19]; [25]
  MIC: 8 µg/mL (≈ 16.6 µM)
[20]; control of Compound 2 test
  MIC: 2 µg/mL (≈ 4.16 µM)
[20]; [25]
  MIC: 2 µg/mL (≈ 4.16 µM)
[21]; control of Compound 2 test
  MIC: >16 µg/mL
[21]; [26]
  MIC: > 16 µg/mL
[22]; control of Compound 1 test
  MIC: 4 µg/mL (≈ 8.32 µM)
[22]; control of Compound 2 test
  MIC: 2 µg/mL (≈ 4.16 µM)
[23]; control of Compound 1 test
  MIC: 0.12 µg/mL (≈ 0.25 µM)
[23]; control of Compound 2 test
  MIC: 0.25 µg/mL (≈ 0.52 µM)
[24]; control of Compound 2 test
  MIC: >16 µg/mL
[24]; [26]
  MIC: > 16 µg/mL
